# Patent US20240390376A1, “METHOD FOR PREVENTING ADVERSE PREGNANCY OUTCOMES DUE TO USE OF SELECTIVE SEROTONIN REUPTAKE INHIBITORS (SSRI) DURING GESTATION” (Wisconsin Alumni Research Foundation, priority 2023, published 2024)
# Read-outs that look alike come from different tables or passages of the source.
# Experiments:
# [1] = test system: pregnant C57Bl/6J mice; conditions: experiment 1; for overall neonatal mortality: control 4.1%
# Protocol: (§1) To investigate the role of ketanserin, an exemplary serotonin receptors 2A and 2C antagonist, on preventing SSRI-induced adverse pregnancy and neonatal outcomes, pregnant mice were treated with SSRI, serotonin, and SSRI/serotonin+ketanserin.
# [2] = test system: pregnant mice; test: Experiment 2: as experiment 1, all mice received ketanserin one hour before treatment; assay type: in vivo; conditions: for litter size / overall neonatal mortality / maternal weight gain / neonatal weight on postnatal day 0: experiment 2; for litter size / overall neonatal mortality: ketanserin 1 mg/kg daily one hour before saline, fluoxetine or serotonin; for maternal weight gain / neonatal weight on postnatal day 0: ketanserin 1 mg/kg daily one hour before saline or serotonin
# Protocol: as §1
# [3] = test system: pregnant mice; test: Number of mouse pups born in control and treatment groups (FIG. 2A); assay type: in vivo; conditions: serotonin 4 mg/kg, fluoxetine 2 mg/kg, ketanserin 1 mg/kg, vs saline control
# [4] = test system: pregnant mice; conditions: fluoxetine 2 mg/kg and 20 mg/kg vs control; dose-dependent; FIG. 1C
# [5] = test system: pregnant sheep; conditions: in vivo
# Source text: FIG. 1G compares lamb birthweights between a treatment group and control group.
# FIG. 1G compares the lamb birthweights between the treatment group and control group.
# [6] = cited from earlier work
# [7] = test system: pregnant sheep; conditions: cited from earlier work
# [8] = in vivo; cited from earlier work
# [9] = test system: placenta of mice; test: Placenta immunostaining (Tunel, caspase 3, Ki67) and placental size, embryonic day 18.5 (FIG. 2B); conditions: fluoxetine 20 mg/kg
# [10] = test system: SERT null mice; test: Ketanserin rescue of neonatal mortality in SERT null mice; assay type: in vivo; conditions: 49.0% without ketanserin
# Protocol: By performing RNA sequencing of placenta from heterozygous Sert+/− mice vs homozygous Sert−/− knockout mice and their respective offspring, it was confirmed that lack of maternal, but not placental or fetal SERT, is associated with placental changes: more than 2,100 genes were differentially expressed in the placenta when the dam was SERT−/−. Importantly, ketanserin also rescued the neonatal mortality in SERT null mice (49.0 vs 23.8% within 24 hours of birth).
# [11] = fluoxetine 2 mg/kg or serotonin 5 mg/kg daily
SMILES,"overall neonatal mortality [1, 11] [%]",litter size [2],overall neonatal mortality [2] [%],number of pups born [3],number of pups born [8],pup mortality [8],maternal weight gain [2] [g],neonatal weight on postnatal day 0 [2] [g],other results
CNCCC(Oc1ccc(C(F)(F)F)cc1)c1ccccc1 (centres unmarked) [fluoxetine],11.6,7.4±0.6,24.3,significantly reduced,decrease,increase,–,–,"mouse pup mortality [4]: decidedly negative effect; average gestational length ([5]; female, sheep): 147.7 days; lamb birthweights [5]: weighed significantly less; placentome diameter [5]: significantly smaller; placental transfer ([6]; in vivo): about 70%; blood perfusion to the uterus ([7]; third trimester pregnant sheep): rapidly decreased; placentome growth ([7]; treated during the last month of gestation): decreased placentome growth; pregnancy rates [8]: decreases; Tunel-positive apoptotic cells in the placenta [9]: visualized; placental size ([9]; ketanserin 1 mg/kg): much reduced"
"O=C(c1ccc(F)cc1)C1CCN(CCn2c(=O)[nH]c3ccccc3c2=O)CC1 [ketanserin, 3-[2-[4-(4-fluorobenzoyl)piperidin-1-yl]ethyl]-1H-quinazoline-2,4-dione]",–,7.0±0.3,8.5,–,–,–,11.4 ± 0.5,1.264 ± 0.01,placental changes and adverse pregnancy and neonatal outcomes caused by SSRI use ([2]; summary of the ketanserin studies): prevented most placental changes and adverse pregnancy and neonatal outcomes; neonatal mortality within 24 hours of birth [10]: 23.8%
"NCCc1c[nH]c2ccc(O)cc12 [serotonin, 5-hydroxytryptamine]",32.3,7.0±0.5,22.8,significantly reduced,–,–,10.2 ± 0.6,1.197 ± 0.01,"maternal weight gain between DPC10.5 and the day before parturition ([1]; fluoxetine 2 mg/kg or serotonin 5 mg/kg daily, DPC 10.5 until parturition): 8.0 ± 0.8 g; litter size ([1]; fluoxetine 2 mg/kg or serotonin 5 mg/kg daily, control 8.3): 5.2±0.5; neonatal weight on postnatal day 0 ([1]; serotonin 5 mg/kg daily): 1.138 ± 0.028 g; neonatal weight on postnatal day 1 ([1]; serotonin 5 mg/kg daily): 1.223 ± 0.028 g"
CN[C@H]1CC[C@@H](c2ccc(Cl)c(Cl)c2)c2ccccc21 [sertraline],–,–,–,–,decrease,increase,–,–,placental transfer ([6]; low concentrations in the fetal circulation): limited placental transfer
